In US9796711B2, “Substituted pyrazolo[3,4-b]pyridin-6-carboxylic acids and method of use” (AbbVie S.àr.l., priority 2015, dated 2017):

Molecular target: T1, ΔF508-CFTR (Homo sapiens, UniProt P13569, DEL508-508)
T1 construct: host or cells: CFBE41o-, doxycycline-inducible
Test: CFTR cell surface levels using HRP-tagged ΔF508-CFTR expressing CFBE cells, intrinsic corrector capacity
Type: cell-based
Settings: HRP-tagged ΔF508-CFTR CFBE41o- cells, compounds alone (intrinsic corrector capacity), 20 hours at 33° C.; for % Activation: positive control 3 μM corrector; for EC50: read-out: EC50
Source text: Measuring CFTR Cell Surface Levels Using HRP-Tagged AF508-CFTR Expressing CFBE Cells
The HRP-tagged AF508-CFTR cell assay measures the expression of CFTR-ΔF508 at the plasma membrane. CFTR-ΔF508 has a folding defect leading to absence of protein at the plasma membrane. This assay is used to evaluate the capacity of compounds to increase the expression of CFTR-ΔF508 at the plasma membrane. The CFTR-ΔF508 is tagged with HRP (horse radish peroxidase enzyme) within the ECL4 (Extracellular loop 4) of CFTR (Phuan, P.-W. et al. Synergy-based small-molecule screen using a human lung epithelial cell line yields AF508-CFTR correctors that augment VX-809 maximal efficacy. Mol. Pharmacol. 86, 42-51 (2014)). When HRP-tagged AF508-CFTR is present at the plasma membrane, the HRP enzyme activity can be measured. The amount of CFTR-ΔF508 that can be rescued to the plasma membrane is correlated with the amount of functional enzyme that can be measured.
There are several ways to measure the capacity of compounds to rescue CFTR-ΔF508 to the plasma membrane; either compounds are evaluated on their own and the impact on plasma membrane levels is measured or compounds are evaluated in combination with a co-corrector, i.e. a compound that rescues CFTR-ΔF508 to the plasma membrane but rescue can be enhanced by addition of compounds due to a complementary mode of action.
Activity of Compounds for their Intrinsic Corrector Capacity:
For this purpose doxycycline-inducible AF508-CFTR-HRP expressing CFBE4lo-cells (obtained from Gergely Lukacs, McGill University) were maintained in MEM (Gibco; 31095) supplemented with 10% fetal bovine serum (Hyclone; SV30160.03) under puromycin (3 μg/mL) and G418 selection (0.2 mg/mL). For compound testing, cells were seeded at 4000 cells/well in white 384-well plates (Greiner; 781080) in 50 μL medium containing 0.5 μg/mL doxycycline and incubated for 68 hours at 37° C., 5% CO2. On day four, 10 μL test compounds diluted in PBS were added to the plates at a final DMSO concentration of 0.1%. All compound plates contained negative controls (DMSO) and positive controls (3 μM corrector, 3-[(2R,4R)-4-({[1-(2,2-difluoro-1,3-benzodioxol-5-yl)cyclopropyl]carbonyl}amino)-7-methoxy-3,4-dihydro-2H-chromen-2-yl]benzoic acid). Cell plates were incubated at 33° C., 5% CO2 for 20 hours. On day five, the cells were washed five times with phosphate-buffered saline, and HRP activity was assayed by the addition of 50 μL/well of HRP substrate (SuperSignal™ West Pico Chemiluminescent Substrate, Thermo Scientific; 34080). After incubation for 15 minutes in the dark, chemiluminescence was measured using a plate reader (EnVision®, Perkin Elmer). Raw data were normalized to percentage activity values using the equation: 100×(Sample−Negative control)/(Positive control−Negative Control).

T1 sequence (P13569 with tags, fused parts or gaps DEL508-508): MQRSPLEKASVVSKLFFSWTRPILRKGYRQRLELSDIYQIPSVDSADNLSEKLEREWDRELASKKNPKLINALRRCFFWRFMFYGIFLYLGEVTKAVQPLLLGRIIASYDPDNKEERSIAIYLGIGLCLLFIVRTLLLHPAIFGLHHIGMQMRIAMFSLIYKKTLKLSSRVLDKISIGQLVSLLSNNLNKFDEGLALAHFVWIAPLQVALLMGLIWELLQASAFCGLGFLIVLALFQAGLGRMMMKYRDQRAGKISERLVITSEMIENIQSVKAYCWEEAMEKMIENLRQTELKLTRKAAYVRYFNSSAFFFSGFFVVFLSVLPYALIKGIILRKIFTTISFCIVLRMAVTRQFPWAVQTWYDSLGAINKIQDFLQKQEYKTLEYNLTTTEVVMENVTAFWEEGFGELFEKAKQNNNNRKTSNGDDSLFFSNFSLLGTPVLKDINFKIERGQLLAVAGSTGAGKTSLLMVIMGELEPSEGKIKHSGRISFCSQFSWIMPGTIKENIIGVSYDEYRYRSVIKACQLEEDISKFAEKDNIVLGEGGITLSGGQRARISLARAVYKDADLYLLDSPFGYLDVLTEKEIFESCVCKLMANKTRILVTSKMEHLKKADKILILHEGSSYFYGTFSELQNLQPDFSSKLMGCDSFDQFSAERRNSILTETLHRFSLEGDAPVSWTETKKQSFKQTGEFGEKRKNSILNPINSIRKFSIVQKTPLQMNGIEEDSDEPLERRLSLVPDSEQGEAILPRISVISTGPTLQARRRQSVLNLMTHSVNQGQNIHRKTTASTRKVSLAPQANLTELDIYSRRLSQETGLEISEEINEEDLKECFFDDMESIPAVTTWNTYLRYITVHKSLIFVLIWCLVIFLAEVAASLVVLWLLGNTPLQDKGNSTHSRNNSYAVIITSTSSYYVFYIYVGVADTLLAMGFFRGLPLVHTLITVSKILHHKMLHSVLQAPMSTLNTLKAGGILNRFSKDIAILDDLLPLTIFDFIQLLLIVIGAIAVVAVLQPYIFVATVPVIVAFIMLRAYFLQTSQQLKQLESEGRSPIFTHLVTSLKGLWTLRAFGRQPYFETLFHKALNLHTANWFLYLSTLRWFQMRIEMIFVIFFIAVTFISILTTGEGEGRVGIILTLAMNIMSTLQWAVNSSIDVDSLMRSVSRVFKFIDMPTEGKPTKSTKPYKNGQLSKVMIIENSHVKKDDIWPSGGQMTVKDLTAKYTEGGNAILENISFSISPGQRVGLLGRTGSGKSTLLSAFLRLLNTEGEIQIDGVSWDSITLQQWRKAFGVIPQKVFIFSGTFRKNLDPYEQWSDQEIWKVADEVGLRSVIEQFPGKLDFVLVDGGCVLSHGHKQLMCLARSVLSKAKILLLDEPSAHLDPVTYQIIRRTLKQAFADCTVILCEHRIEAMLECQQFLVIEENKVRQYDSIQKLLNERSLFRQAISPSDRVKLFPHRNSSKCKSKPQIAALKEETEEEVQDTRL

In the case of `Cc1nn(-c2ccccc2)c2nc(C(=O)O)cc(-c3ccc(C4=CCN(C)CC4)cc3)c12` [compound 27, 3-methyl-4-[4-(1-methyl-1,2,3,6-tetrahydropyridin-4-yl)phenyl]-1-phenyl-1H-pyrazolo[3,4-b]pyridine-6-carboxylic acid], the “% Activation” value is reported as 41.145% and the EC50 is reported as 6.67 µM.
For `Cc1nn(-c2ccccc2)c2nc(C(=O)O)cc(-c3ccc(N4CCC(F)C4)cc3)c12` (stereo not drawn) [compound 28, 4-[4-(3-fluoropyrrolidin-1-yl)phenyl]-3-methyl-1-phenyl-1H-pyrazolo[3,4-b]pyridine-6-carboxylic acid], the “% Activation” value was 129.5% and the EC50 was 1.18 µM.
For `CC(=O)N1CCN(c2ccc(-c3cc(C(=O)O)nc4c3c(C)nn4-c3ccccc3)cc2)CC1` [compound 29, 4-[4-(4-acetylpiperazin-1-yl)phenyl]-3-methyl-1-phenyl-1H-pyrazolo[3,4-b]pyridine-6-carboxylic acid], the “% Activation” value was 146.1% and the EC50 was 3.11 µM.
`Cc1cc(C)cc(-n2nc(C)c3c(-c4ccc(N5CCOCC5)cc4)cc(C(=O)O)nc32)c1` [compound 30, 1-(3,5-dimethylphenyl)-3-methyl-4-[4-(morpholin-4-yl)phenyl]-1H-pyrazolo[3,4-b]pyridine-6-carboxylic acid] was tested, and the “% Activation” value was 119.1% and the EC50 was 1.21 µM.
In the case of `Cc1nn(-c2ccc(OC(F)(F)F)cc2)c2nc(C(=O)O)cc(-c3ccc(N4CCOCC4)cc3)c12` [compound 31, 3-methyl-4-[4-(morpholin-4-yl)phenyl]-1-[4-(trifluoromethoxy)phenyl]-1H-pyrazolo[3,4-b]pyridine-6-carboxylic acid], the “% Activation” value is reported as 96.335% and the EC50 is reported as 0.522 µM.
In the case of `COc1cc(N2CCOCC2)ccc1-c1cc(C(=O)O)nc2c1c(C)nn2-c1ccccc1` [compound 33, 4-[2-methoxy-4-(morpholin-4-yl)phenyl]-3-methyl-1-phenyl-1H-pyrazolo[3,4-b]pyridine-6-carboxylic acid], the “% Activation” value is reported as 90.265% and the EC50 is reported as 1.53 µM.
With `Cc1nn(-c2cccc(OC(F)(F)F)c2)c2nc(C(=O)O)cc(-c3ccc(N4CCOCC4)cc3)c12` [compound 35, 3-methyl-4-[4-(morpholin-4-yl)phenyl]-1-[3-(trifluoromethoxy)phenyl]-1H-pyrazolo[3,4-b]pyridine-6-carboxylic acid] the “% Activation” value was 110.15% and the EC50 was 0.737 µM.
With `Cc1nn(-c2ccc(F)c(F)c2)c2nc(C(=O)O)cc(-c3ccc(N4CCOCC4)cc3)c12` [compound 37, 1-(3,4-difluorophenyl)-3-methyl-4-[4-(morpholin-4-yl)phenyl]-1H-pyrazolo[3,4-b]pyridine-6-carboxylic acid] the “% Activation” value was 112.9% and the EC50 was 1.11 µM.
With `Cc1nn(-c2cccc(S(C)(=O)=O)c2)c2nc(C(=O)O)cc(-c3ccc(N4CCOCC4)cc3)c12` [compound 38, 1-[3-(methanesulfonyl)phenyl]-3-methyl-4-[4-(morpholin-4-yl)phenyl]-1H-pyrazolo[3,4-b]pyridine-6-carboxylic acid] the “% Activation” value was 23.86% and the EC50 was greater than 10 µM.
With `Cc1nn(C2CCN(C)CC2)c2nc(C(=O)O)cc(-c3ccc(N4CCOCC4)cc3)c12` [compound 39, 3-methyl-1-(1-methylpiperidin-4-yl)-4-[4-(morpholin-4-yl)phenyl]-1H-pyrazolo[3,4-b]pyridine-6-carboxylic acid] the “% Activation” value was −2.469% and the EC50 was greater than 10 µM.
For `Cc1c(C(=O)O)nc2c(c(C)nn2-c2ccccc2)c1-c1ccc(N2CCOCC2)cc1` [compound 42, 3,5-dimethyl-4-[4-(morpholin-4-yl)phenyl]-1-phenyl-1H-pyrazolo[3,4-b]pyridine-6-carboxylic acid], the “% Activation” value was 74.83% and the EC50 was 3.34 µM.
For `Cc1nn(-c2cc(Cl)cc(Cl)c2)c2nc(C(=O)O)cc(-c3ccc(N4CCOCC4)cc3)c12` [compound 44, 1-(3,5-dichlorophenyl)-3-methyl-4-[4-(morpholin-4-yl)phenyl]-1H-pyrazolo[3,4-b]pyridine-6-carboxylic acid], the “% Activation” value was 117.2% and the EC50 was 2.2 µM.
In the case of `Cc1nn(-c2cccc(S(N)(=O)=O)c2)c2nc(C(=O)O)cc(-c3ccc(N4CCOCC4)cc3)c12` [compound 45, 3-methyl-4-[4-(morpholin-4-yl)phenyl]-1-(3-sulfamoylphenyl)-1H-pyrazolo[3,4-b]pyridine-6-carboxylic acid], the “% Activation” value is reported as 5.851% and the EC50 is reported as greater than 10 µM.
With `Cc1nn(-c2cnn(C)c2)c2nc(C(=O)O)cc(-c3ccc(N4CCOCC4)cc3)c12` [compound 46, 3-methyl-1-(1-methyl-1H-pyrazol-4-yl)-4-[4-(morpholin-4-yl)phenyl]-1H-pyrazolo[3,4-b]pyridine-6-carboxylic acid] the “% Activation” value was 15.23% and the EC50 was greater than 10 µM.
In the case of `C=C(C)c1nn(-c2ccccc2)c2nc(C(=O)O)cc(-c3ccc(N4CCOCC4)cc3)c12` [compound 48, 4-[4-(morpholin-4-yl)phenyl]-1-phenyl-3-(prop-1-en-2-yl)-1H-pyrazolo[3,4-b]pyridine-6-carboxylic acid], the “% Activation” value is reported as 163.7% and the EC50 is reported as 0.989 µM.
`CC(C)c1nn(-c2cccc(C#N)c2)c2nc(C(=O)O)cc(-c3ccc(N4CCOCC4)cc3)c12` [compound 49, 1-(3-cyanophenyl)-4-[4-(morpholin-4-yl)phenyl]-3-(propan-2-yl)-1H-pyrazolo[3,4-b]pyridine-6-carboxylic acid] was tested, and the “% Activation” value was 107% and the EC50 was 1.11 µM.
With `COc1cc(-n2nc(C)c3c(-c4ccc(N5CCOCC5)cc4)cc(C(=O)O)nc32)ccn1` [compound 51, 1-(2-methoxypyridin-4-yl)-3-methyl-4-[4-(morpholin-4-yl)phenyl]-1H-pyrazolo[3,4-b]pyridine-6-carboxylic acid] the “% Activation” value was 41.22% and the EC50 was 1.18 µM.
In the case of `COc1cc(F)cc(-n2nc(C)c3c(-c4ccc(N5CCOCC5)cc4)cc(C(=O)O)nc32)c1` [compound 52, 1-(3-fluoro-5-methoxyphenyl)-3-methyl-4-[4-(morpholin-4-yl)phenyl]-1H-pyrazolo[3,4-b]pyridine-6-carboxylic acid], the “% Activation” value is reported as 87.35% and the EC50 is reported as 2.68 µM.
For `Cc1nn(-c2ccccc2)c2nc(C(=O)O)cc(-c3ccc(N4CCN(S(C)(=O)=O)CC4)cc3)c12` [compound 53, 4-{4-[4-(methanesulfonyl)piperazin-1-yl]phenyl}-3-methyl-1-phenyl-1H-pyrazolo[3,4-b]pyridine-6-carboxylic acid], the “% Activation” value was 72.97% and the EC50 was 3.34 µM.
For `CNC(=O)c1nn(-c2ccccc2)c2nc(C(=O)O)cc(-c3ccc(N4CCOCC4)cc3)c12` [compound 55, 3-(methylcarbamoyl)-4-[4-(morpholin-4-yl)phenyl]-1-phenyl-1H-pyrazolo[3,4-b]pyridine-6-carboxylic acid], the “% Activation” value was 0.088% and the EC50 was greater than 10 µM.
For `CC(C)(CO)c1nn(-c2ccccc2)c2nc(C(=O)O)cc(-c3ccc(N4CCOCC4)cc3)c12` [compound 56, 3-(1-hydroxy-2-methylpropan-2-yl)-4-[4-(morpholin-4-yl)phenyl]-1-phenyl-1H-pyrazolo[3,4-b]pyridine-6-carboxylic acid], the “% Activation” value was 53.1% and the EC50 was 3.34 µM.
In the case of `Cc1nn(-c2ccnc(F)c2)c2nc(C(=O)O)cc(-c3ccc(N4CCOCC4)cc3)c12` [compound 57, 1-(2-fluoropyridin-4-yl)-3-methyl-4-[4-(morpholin-4-yl)phenyl]-1H-pyrazolo[3,4-b]pyridine-6-carboxylic acid], the “% Activation” value is reported as 68.57% and the EC50 is reported as 3.34 µM.
`Cc1nn(-c2cc[nH]c(=O)c2)c2nc(C(=O)O)cc(-c3ccc(N4CCOCC4)cc3)c12` [compound 58, 3-methyl-4-[4-(morpholin-4-yl)phenyl]-1-(2-oxo-1,2-dihydropyridin-4-yl)-1H-pyrazolo[3,4-b]pyridine-6-carboxylic acid] was tested, and the “% Activation” value was 4.754% and the EC50 was greater than 10 µM.
In the case of `Cc1nn(-c2cccc(C(N)=O)c2)c2nc(C(=O)O)cc(-c3ccc(N4CCOCC4)cc3)c12` [compound 59, 1-(3-carbamoylphenyl)-3-methyl-4-[4-(morpholin-4-yl)phenyl]-1H-pyrazolo[3,4-b]pyridine-6-carboxylic acid], the “% Activation” value is reported as 13.69% and the EC50 is reported as greater than 10 µM.
